The values that follow come from US6500840B2, “Quinuclidine-substituted heteroaryl moieties for treatment of disease” (Pharmacia & Upjohn Company, priority 2000, dated 2002).

Broadly, the Ki is a measure of affinity in units of concentration, obtained from inhibition or displacement. Read a low Ki as higher affinity.

Values joined by “and” are separate entries in the source; they are usually repeats but may differ in a detail not shown here. Identical values can stand only once. Counter-ions that a name gives are not always drawn.

This test deals with α7 nAChR (Rattus norvegicus, UniProt Q05941). In words: [3H]-MLA competition binding assay, rat brain membranes. The settings on record: Ki, inhibition of [3H]-MLA binding (3.0 to 4.0 nM), Sprague-Dawley rat whole brain minus cerebellum homogenate, 1 hour at 25° C.
Chain of α7 nAChR (Q05941 23-502): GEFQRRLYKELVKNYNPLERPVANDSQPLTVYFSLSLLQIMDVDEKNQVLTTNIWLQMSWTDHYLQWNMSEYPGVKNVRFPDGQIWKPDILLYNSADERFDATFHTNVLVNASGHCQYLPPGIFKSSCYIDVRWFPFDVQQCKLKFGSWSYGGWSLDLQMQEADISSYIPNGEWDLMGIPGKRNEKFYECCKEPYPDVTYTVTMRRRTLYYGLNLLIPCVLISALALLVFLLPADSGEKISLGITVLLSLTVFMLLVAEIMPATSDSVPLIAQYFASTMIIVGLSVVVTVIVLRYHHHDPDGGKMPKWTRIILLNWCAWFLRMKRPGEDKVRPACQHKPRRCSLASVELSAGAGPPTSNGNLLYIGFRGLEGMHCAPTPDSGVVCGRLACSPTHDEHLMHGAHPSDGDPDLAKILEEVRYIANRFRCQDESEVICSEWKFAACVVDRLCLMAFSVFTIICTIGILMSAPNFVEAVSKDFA
Protocol: Membrane Preparation. Male Sprague-Dawley rats (300-350 g) are sacrificed by decapitation and the brains (whole brain minus cerebellum) are dissected quickly, weighed and homogenized in 9 volumes/g wet weight of ice-cold 0.32 M sucrose using a rotating pestle on setting 50 (10 up and down strokes). The homogenate is centrifuged at 1,000×g for 10 minutes at 4° C. The supernatant is collected and centrifuged at 20,000×g for 20 minutes at 4° C. The resulting pellet is resuspended to a protein concentration of 1-8 mg/mL. Aliquots of 5 mL homogenate are frozen at −80° C. until needed for the assay.
Binding Assay. […] Filters are pre-soaked in 50 mm Tris HCl pH 7.0-0.05% polyethylenimine. The filters are rapidly washed two times with 5 mL aliquots of cold 0.9% saline and then counted for radioactivity by liquid
Data Analysis. […] Hill coefficients were obtained using non-linear regression (GraphPad Prism sigmoidal dose-response with variable slope).
With `COc1ccccc1-c1cnc(C(=O)N[C@H]2CN3CCC2CC3)o1` [Example 84, N-[(3R)-1-azabicyclo[2.2.2]oct-3-yl]-5-(2-methoxyphenyl)-1,3-oxazole-2-carboxamide 4-methylbenzenesulfonate], the Ki was in the range of 1100 to 1490 nM. `O=C(N[C@H]1CN2CCC1CC2)c1ncc(-c2ccc(F)cc2)o1` [Example 85, N-[(3R)-1-azabicyclo[2.2.2]oct-3-yl]-5-(4-fluorophenyl)-1,3-oxazole-2-carboxamide 4-methylbenzenesulfonate] registered a Ki of 30 to 40 nM.

`O=C(N[C@H]1CN2CCC1CC2)c1ncc(-c2ccccc2Cl)o1` [Example 86, N-[(3R)-1-azabicyclo[2.2.2]oct-3-yl]-5-(2-chlorophenyl)-1,3-oxazole-2-carboxamide 4-methylbenzenesulfonate] returned an inhibitory constant (Ki) of 30 to 40 nM. As to `N#Cc1cccc(-c2cnc(C(=O)N[C@H]3CN4CCC3CC4)o2)c1` [Example 87, N-[(3R)-1-azabicyclo[2.2.2]oct-3-yl]-5-(3-cyanophenyl)-1,3-oxazole-2-carboxamide 4-methylbenzenesulfonate], the Ki was in the range of 130 to 150 nM. In the case of `O=C(N[C@H]1CN2CCC1CC2)c1ncc(-c2ccc(Br)cc2)o1` [Example 88, N-[(3R)-1-azabicyclo[2.2.2]oct-3-yl]-5-(4-bromophenyl)-1,3-oxazole-2-carboxamide 4-methylbenzenesulfonate] it was 65 to 80 nM; in that of `Cc1nc(C(=O)N[C@H]2CN3CCC2CC3)sc1-c1ccccc1` [Example 89, N-[(3R)-1-Azabicyclo[2.2.2]oct-3-yl]-4-methyl-5-phenyl-1,3-thiazole-2-carboxamide 4-Methylbenzenesulfonate], 310 to 400 nM; in that of `O=C(N[C@H]1CN2CCC1CC2)c1ncc(-c2ccccc2)s1` [Example 90, N-[(3R)-1-azabicyclo[2.2.2]oct-3-yl]-5-phenyl-1,3-thiazole-2-carboxamide], 80 to 150 nM. `O=C(N[C@H]1CN2CCC1CC2)c1ncc(-c2cccc([N+](=O)[O-])c2)s1` [Example 92, N-[(3R)-1-azabicyclo[2.2.2]oct-3-yl]-5-(3-nitrophenyl)-1,3-thiazole-2-carboxamide 4-medhylbenzenesulfonate] yielded a Ki of 190 to 375 nM. In the case of `COc1cccc(-c2cnc(C(=O)N[C@H]3CN4CCC3CC4)s2)c1` [Example 93, N-[(3R)-1-azabicyclo[2.2.2]oct-3-yl]-5-(3-methoxyphenyl)-1,3-thiazole-2-carboxamide 4-methylbenzenesulfonate] it was 40 to 45 nM; in that of `O=C(N[C@H]1CN2CCC1CC2)c1ncc(-c2ccccc2Cl)s1` [Example 94, N-[(3R)-1-azabicyclo[2.2.2]oct-3-yl]-5-(2-chlorophenyl)-1,3-thiazole-2-carboxamide 4-methylbenzenesulfonate], 125 nM. In the case of `O=C(N[C@H]1CN2CCC1CC2)c1ncc(-c2ccc(F)cc2)s1` [Example 95, N-[(3R)-1-azabicyclo[2.2.2]oct-3-yl]-5-(4-fluorophenyl)-1,3-thiazole-2-carboxamide 4-methylbenzenesulfonate] it was 1080 nM. In the case of `COc1ccccc1-c1cnc(C(=O)N[C@H]2CN3CCC2CC3)s1` [Example 96, N-[(3R)-1-azabicyclo[2.2.2]oct-3-yl]-5-(2-methoxyphenyl)-1,3-thiazole-2-carboxamide 4-methylbenzenesulfonate] it was 95 to 110 nM; in that of `Cc1cnc(C(=O)N[C@H]2CN3CCC2CC3)s1` [Example 98, N-[(3R)-1-azabicyclo[2.2.2]oct-3-yl]-5-methyl-1,3-thiazole-2-carboxamide 4-methylbenzenesulfonate], 50 to 80 nM; in that of `O=C(N[C@H]1CN2CCC1CC2)c1ncc(-c2cccc(Cl)c2)s1` [Example 99, N-[(3R)-1-azabicyclo[2.2.2]oct-3-yl]-5-(3-chlorophenyl)-1,3-thiazole-2-carboxamide 4-methylbenzenesulfonate], 310 to 325 nM. `O=C(N[C@H]1CN2CCC1CC2)c1ccc(-c2ccccc2)o1` [Example 103, N-[(3R)-1-Azabicyclo[2.2.2]oct-3-yl]-5-phenyl-furan-2-carboxamide 4-Methylbenzenesulfonate] returned a Ki of 17 to 50 nM. The value for `O=C(N[C@H]1CN2CCC1CC2)c1ccc(-c2ccccc2Cl)o1` [Example 104, N-((3R)-1-azabicyclo[2.2.2]oct-3-yl]-5-(2-chlorophenyl)-furan-2-carboxamide toluene sulfonate] was 20 to 130 nM and 75 nM.

In turn, `O=C(N[C@H]1CN2CCC1CC2)c1ccc(-c2cccc(Cl)c2)o1` [Example 105, N-[(3R)-1-azabicyclo[2.2.2]oct-3-yl]-5-(3-chlorophenyl)-furan-2-carboxamide toluene sulfonate] registered a Ki of 90 nM. `O=C(N[C@H]1CN2CCC1CC2)c1ccc(-c2ccc(Cl)cc2)o1` [Example 106, N-[(3R)-1-azabicyclo[2.2.2]oct-3-yl]-5-(4-chlorophenyl)-furan-2-carboxamide fumarate]: the Ki was 15 to 190 nM and 22 to 110 nM.

As to `O=C(N[C@H]1CN2CCC1CC2)c1ccc(-c2ccccc2C(F)(F)F)o1` [Example 108, N-[(3R)-1-azabicyclo[2.2.2]oct-3-yl]-5-[2-(trifluoromethyl)-phenyl]-furan-2-carboxamide fumarate], the Ki fell in the range of 415 to 560 nM. Take `O=C(N[C@H]1CN2CCC1CC2)c1ccc(-c2cccc(C(F)(F)F)c2)o1` [Example 109, N-[(3R)-1-azabicyclo[2.2.2]oct-3-yl]-5-[3-(trifluoromethyl)-phenyl]-furan-2-carboxamide fumarate]: the Ki was in the range of 1.5 to 6 nM. As to `O=C(N[C@H]1CN2CCC1CC2)c1ccc(-c2ccccc2[N+](=O)[O-])o1` [Example 110, N-[(3R)-1-azabicyclo[2.2.2]oct-3-yl]-5-(2-nitrophenyl)-furan-2-carboxamide 4-methylbenzenesulfonate], the Ki lay within 4 to 190 nM.

With `O=C(N[C@H]1CN2CCC1CC2)c1ccc(-c2ccc([N+](=O)[O-])cc2)o1` [Example 112, N-[(3R)-1-azabicyclo[2.2.2]oct-3-yl]-5-(4-nitrophenyl)-furan-2-carboxamide 4-methylbenzenesulfonate], the Ki fell in the range of 5 to 24 nM.

As for `O=C(N[C@H]1CN2CCC1CC2)c1ccc(-c2ccccc2F)o1` [Example 113, N-[(3R)-1-azabicyclo[2.2.2]oct-3-yl]-5-(2-fluorophenyl)-furan-2-carboxamide 4-methylbenzenesulfonate], the Ki lay in the range of 90 to 125 nM. The value for `O=C(N[C@H]1CN2CCC1CC2)c1ccc(-c2cccc(F)c2)o1` [Example 114, N-[(3R)-1-azabicyclo[2.2.2]oct-3-yl]-5-(3-fluorophenyl)-furan-2-carboxamide 4-methylbenzenesulfonate] was 135 nM; that for `O=C(N[C@H]1CN2CCC1CC2)c1ccc(-c2cc(F)ccc2F)o1` [Example 117, N-[(3R)-1-azabicyclo[2.2.2]oct-3-yl]-5-(2,5-difluorophenyl)-furan-2-carboxamide hydrochloride] was 1860 nM; that for `COc1ccccc1-c1ccc(C(=O)N[C@H]2CN3CCC2CC3)o1` [Example 118, N-[(3R)-1-azabicyclo[2.2.2]oct-3-yl]-5-(2-methoxyphenyl)-furan-2-carboxamide 4-methylbenzenesulfonate] was 45 to 69 nM.

For the compound `COc1cccc(-c2ccc(C(=O)N[C@H]3CN4CCC3CC4)o2)c1` [Example 119, N-[(3R)-1-azabicyclo[2.2.2]oct-3-yl]-5-(3-methoxyphenyl)-furan-2-carboxamide 4-methylbenzenesulfonate], the Ki was 415 to 560 nM. The value for `O=C(N[C@H]1CN2CCC1CC2)c1ccc(-c2cccc(OC(F)(F)F)c2)o1` [Example 120, N-[(3R)-1-azabicyclo[2.2.2]oct-3-yl]-5-[3-(trifluoromethoxy)phenyl]-furan-2-carboxamide 4-methylbenzenesulfonate] was 1050 nM. In the case of `Cc1cc(C(=O)N[C@H]2CN3CCC2CC3)oc1C` [Example 128, N-[(3R)-1-azabicyclo[2.2.2]oct-3-yl]-4,5-dimethyl-furan-2-carboxamide hydrochloride] it was 6 to 7 nM. The value for `Cc1ccc(-c2ccc(C(=O)N[C@H]3CN4CCC3CC4)o2)c([N+](=O)[O-])c1` [Example 130, N-[(3R)-1-azabicyclo[2.2.2]oct-3-yl]-5-(4-methyl-2-nitrophenyl)-furan-2-carboxamide hydrochloride] was 420 to 565 nM and 330 to 410 nM; that for `O=C(N[C@H]1CN2CCC1CC2)c1ccc(-c2ccc(F)c(F)c2)o1` [Example 132, N-[(3R)-1-azabicyclo[2.2.2]oct-3-yl]-5-(3,4-difluorophenyl)-furan-2-carboxamide hydrochloride] was 875 to 2080 nM; that for `O=C(N[C@H]1CN2CCC1CC2)c1ccc(-c2cc(F)cc(F)c2)o1` [Example 133, N-[(3R)-1-azabicyclo[2.2.2]oct-3-yl]-5-(3,5-difluorophenyl)-furan-2-carboxamide hydrochloride] was 30 to 70 nM. Turning to `COc1ccc(-c2ccc(C(=O)N[C@H]3CN4CCC3CC4)o2)cc1` [Example 134, N-[(3R)-1-azabicyclo[2.2.2]oct-3-yl]-5-(4-methoxy-phenyl)-furan-2-carboxamide hydrochloride], the Ki was 60 to 100 nM. In the case of `Cc1ccccc1-c1ccc(C(=O)N[C@H]2CN3CCC2CC3)o1` [Example 135, N-[(3R)-1-azabicyclo[2.2.2]oct-3-yl]-5-(2-methylphenyl)-furan-2-carboxamide 4-methylbenzenesulfonate], the Ki fell in the range of 16 to 45 nM. The value for `Cc1cccc(-c2ccc(C(=O)N[C@H]3CN4CCC3CC4)o2)c1` [Example 136, N-[(3R)-1-azabicyclo[2.2.2]oct-3-yl]-5-(3-methylphenyl)-furan-2-carboxamide 4-methylbenzenesulfonate] was 15 to 20 nM; that for `O=C(N[C@H]1CN2CCC1CC2)c1ccc(-c2ccccc2OC(F)(F)F)o1` [Example 138, N-[(3R)-1-azabicyclo[2.2.2]oct-3-yl]-5-[2-(trifluoromethoxy)phenyl]-furan-2-carboxamide 4-methylbenzenesulfonate] was 525 to 590 nM.
